Target: T1, TLR7 (Homo sapiens, UniProt Q9NYK1)
T1 construct: expressed in transfected cells; host or cells: HEK cells carrying TLR7 and an NF-kB reporter read with Steady-Glo
T1 sequence (Q9NYK1 27-1049): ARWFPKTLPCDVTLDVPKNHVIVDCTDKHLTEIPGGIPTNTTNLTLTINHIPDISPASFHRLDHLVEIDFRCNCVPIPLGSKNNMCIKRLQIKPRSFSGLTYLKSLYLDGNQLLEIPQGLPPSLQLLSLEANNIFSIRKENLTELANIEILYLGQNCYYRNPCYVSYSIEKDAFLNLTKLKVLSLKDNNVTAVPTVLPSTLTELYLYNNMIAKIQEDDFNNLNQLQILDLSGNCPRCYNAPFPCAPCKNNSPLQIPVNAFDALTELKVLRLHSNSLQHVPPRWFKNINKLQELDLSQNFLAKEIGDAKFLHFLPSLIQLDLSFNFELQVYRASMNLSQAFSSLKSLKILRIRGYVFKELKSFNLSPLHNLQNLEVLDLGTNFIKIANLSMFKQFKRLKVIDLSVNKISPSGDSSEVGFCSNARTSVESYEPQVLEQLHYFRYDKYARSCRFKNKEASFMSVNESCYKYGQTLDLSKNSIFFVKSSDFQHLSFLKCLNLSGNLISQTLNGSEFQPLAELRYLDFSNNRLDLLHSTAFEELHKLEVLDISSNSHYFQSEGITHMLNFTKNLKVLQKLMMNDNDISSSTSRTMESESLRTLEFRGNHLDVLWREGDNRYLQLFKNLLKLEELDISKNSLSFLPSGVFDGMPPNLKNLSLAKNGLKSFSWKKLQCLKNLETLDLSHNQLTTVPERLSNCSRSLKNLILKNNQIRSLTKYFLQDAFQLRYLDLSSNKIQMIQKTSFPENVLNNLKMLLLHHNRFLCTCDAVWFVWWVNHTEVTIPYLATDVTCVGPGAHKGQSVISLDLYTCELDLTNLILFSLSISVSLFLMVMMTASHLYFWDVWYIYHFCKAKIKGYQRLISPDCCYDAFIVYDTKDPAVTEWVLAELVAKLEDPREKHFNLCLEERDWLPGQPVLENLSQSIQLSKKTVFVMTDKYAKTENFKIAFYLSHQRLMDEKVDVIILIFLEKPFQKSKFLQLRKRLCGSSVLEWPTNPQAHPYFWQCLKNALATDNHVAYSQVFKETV
Experiment: HEK Cell Assay (TLR7/NFKb HEK reporter cells, Steady-Glo)
Type: cell-based
Conditions: compound 30 min, then R*48 agonist 5 hours, Steady-Glo readout, read-out: Potency
Outline: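 TLR7/NF-κB HEK reporter cells cultured 24 h, then pre-incubated 30 min with compound before adding R*48 agonist. Luciferase read by Steady-Glo luminescence after 5 h.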

First: C[C@@H]1C[C@@H](c2ccc(C#N)c3ncccc23)CN(C(=O)C2CC(N)C2)C1 (stereo partly drawn) [Compound 99, 5-[(3S,5R)-1-(3-aminocyclobutanecarbonyl)-5-methyl-3-piperidyl]quinoline-8-carbonitrile]
Second: C[C@@H]1C[C@H](c2ccc(C#N)c3ncccc23)CN(C(=O)C2CC(N)C2)C1 (stereo partly drawn) [Compound 100, 5-[(3R,5R)-1-(3-aminocyclobutanecarbonyl)-5-methyl-3-piperidyl]quinoline-8-carbonitrile]
The IC50 of the first is higher: 1000 to 20000 nM for the first, < 1000 nM for the second.

First: C[C@H]1C[C@H](c2ccc(C#N)c3nccnc23)CN(C(=O)CC2CCN(C)CC2)C1 [Compound 101, 8-{(3R,5S)-5-Methyl-1-[2-(1-methyl-piperidin-4-yl)-acetyl]-piperidin-3-yl}-quinoxaline-5-carbonitrile]
Second: C[C@H]1C[C@@H](c2ccc(C#N)c3nccnc23)CN(C(=O)CC2CCN(C)CC2)C1 [Compound 102, 8-{(3S,5S)-5-Methyl-1-[2-(1-methyl-piperidin-4-yl)-acetyl]-piperidin-3-yl}-quinoxaline-5-carbonitrile]
The IC50 of the first is higher: > 20000 nM for the first, < 1000 nM for the second. The second is the more potent here.

First: C[C@@H]1C[C@H](c2ccc(OC(F)(F)F)c3ncccc23)CN(C(=O)CC2CCN(C)CC2)C1 [Compound 103, 2-(1-Methyl-piperidin-4-yl)-1-[(3R,5R)-3-methyl-5-(8-trifluoromethoxy-quinolin-5-yl)-piperidin-1-yl]-ethanone]
Second: C[C@@H]1C[C@H](c2ccc(OC(F)(F)F)c3ncccc23)CN(C(=O)NC2CCN(C)CC2)C1 [Compound 112, (3R,5R)-3-Methyl-5-(8-trifluoromethoxy-quinolin-5-yl)-piperidine-1-carboxylic acid (1-methyl-piperidin-4-yl)-amide]
The IC50 of the first is higher: 1000 to 20000 nM for the first, < 1000 nM for the second.

First: C[C@@H]1C[C@@H](c2ccc(OC(F)(F)F)c3ncccc23)CN(C(=O)CN2CCN(C)CC2)C1 [Compound 104, 2-(4-Methyl-piperazin-1-yl)-1-[(3R,5S)-3-methyl-5-(8-trifluoromethoxy-quinolin-5-yl)-piperidin-1-yl]-ethanone]
Second: C[C@@H]1C[C@H](c2ccc(OC(F)(F)F)c3ncccc23)CN(C(=O)CN2CCN(C)CC2)C1 [Compound 105, 2-(4-Methyl-piperazin-1-yl)-1-[(3R,5R)-3-methyl-5-(8-trifluoromethoxy-quinolin-5-yl)-piperidin-1-yl]-ethanone]
The IC50 of the first is higher: > 20000 nM for the first, 1000 to 20000 nM for the second.

Compared with `C[C@@H]1C[C@H](c2ccc(C#N)c3ncccc23)CN(Cc2cnn(C)c2)C1` [Compound 106, 5-[(3R,5R)-5-methyl-1-[(1-methylpyrazol-4-yl)methyl]-3-piperidyl]quinoline-8-carbonitrile], `C[C@@H]1C[C@H](c2ccc(C#N)c3ncccc23)CN(C(=N)N)C1` [Compound 119, (3R,5R)-3-(8-Cyano-quinolin-5-yl)-5-methyl-piperidine-1-carboxamidine] is lower in IC50: > 20000 nM for the first, 1000 to 20000 nM for the second.

`CC1CC(c2ccc(C#N)c3ncccc23)CN(C(=O)NC2CCN(C)CC2)C1` (stereo not drawn) [Compound 109, 3-(8-Cyano-quinolin-5-yl)-5-methyl-piperidine-1-carboxylic acid (1-methyl-piperidin-4-yl)-amide] and `C[C@@H]1C[C@H](c2ccc(C#N)c3ncccc23)CN(C(=O)NC2CCN(C)CC2)C1` [Compound 113, (3R,5R)-3-(8-Cyano-quinolin-5-yl)-5-methyl-piperidine-1-carboxylic acid (1-methyl-piperidin-4-yl)-amid] cannot be ordered by IC50: < 1000 nM for the first, < 1000 nM for the second.

`CC1CC(c2ccc(C#N)c3ncccc23)CN(C(=O)NCC2CC(F)(F)C2)C1` (stereo not drawn) [Compound 110, 3-(8-Cyano-quinolin-5-yl)-5-methyl-piperidine-1-carboxylic acid (3,3-difluoro-cyclobutylmethyl)-amide] and `C[C@@H]1C[C@H](c2ccc(C#N)c3ncccc23)CN(C(N)=O)C1` [Compound 118, (3R,5R)-3-(8-Cyano-quinolin-5-yl)-5-methyl-piperidine-1-carboxylic acid amide] fall in the same range of IC50: 1000 to 20000 nM for the first, 1000 to 20000 nM for the second.

`C[C@@H]1C[C@@H](c2cccc3ncccc23)CN(C(=O)NC2CCN(C)CC2)C1` [Compound 114, (3R,5S)-3-Methyl-5-quinolin-5-yl-piperidine-1-carboxylic acid (1-methyl-piperidin-4-yl)-amide] and `C[C@@H]1C[C@H](c2cccc3ncccc23)CN(C(=O)NC2CCN(C)CC2)C1` [Compound 115, (3R,5R)-3-Methyl-5-quinolin-5-yl-piperidine-1-carboxylic acid (1-methyl-piperidin-4-yl)-amide] fall in the same range of IC50: 1000 to 20000 nM for the first, 1000 to 20000 nM for the second.

First: C[C@@H]1C[C@H](c2ccc(C#N)c3ncccc23)CN(C(=O)CN2CCC3(CC2)CNC3)C1 [Compound 117, 5-[(3R,5R)-1-(2-2,7-Diaza-spiro[3.5]non-7-yl-acetyl)-5-methyl-piperidin-3-yl]-quinoline-8-carbonitrile]
Second: C[C@H]1C[C@@H](N)C[C@@H](c2ccc(C#N)c3nccnc23)C1 [Compound 121, 8-[(1S,3R,5R)-3-amino-5-methylcyclohexyl]quinoxaline-5-carbonitrile]
The IC50 of the first is higher: 1000 to 20000 nM for the first, < 1000 nM for the second.

Compared with `C[C@@H]1C[C@H](N)C[C@H](c2ccc(C#N)c3nccnc23)C1` [Compound 122, 8-((1R,3S,5S)-3-amino-5-methylcyclohexyl)quinoxaline-5-carbonitrile], `C[C@H]1C[C@@H](N)C[C@H](c2ccc(C#N)c3nccnc23)C1` [Compound 123, 8-[(1R,3R,5R)-3-amino-5-methylcyclohexyl]quinoxaline-5-carbonitrile] is lower in IC50: 1000 to 20000 nM for the first, < 1000 nM for the second.

First: C[C@@H]1C[C@H](N)C[C@@H](c2ccc(C#N)c3nccnc23)C1 [Compound 124, 8-((1S,3S,5S)-3-amino-5-methylcyclohexyl)quinoxaline-5-carbonitrile]
Second: CC(C)[C@H](O)C(=O)N[C@@H]1C[C@H](C)C[C@H](c2ccc(C#N)c3nccnc23)C1 [Compound 125, (S)—N-((1R,3S,5R)-3-(8-cyanoquinoxalin-5-yl)-5-methylcyclohexyl)-2-hydroxy-3-methylbutanamide]
The IC50 of the first is higher: > 20000 nM for the first, < 1000 nM for the second.

First: CC(C)[C@H](O)C(=O)N[C@H]1C[C@@H](C)C[C@@H](c2ccc(C#N)c3nccnc23)C1 [Compound 126, (S)—N-((1S,3R,5S)-3-(8-cyanoquinoxalin-5-yl)-5-methylcyclohexyl)-2-hydroxy-3-methylbutanamide]
Second: CC(C)[C@H](O)C(=O)N[C@@H]1C[C@H](C)C[C@@H](c2ccc(C#N)c3nccnc23)C1 [Compound 127, (S)—N-((1R,3R,5R)-3-(8-cyanoquinoxalin-5-yl)-5-methylcyclohexyl)-2-hydroxy-3-methylbutanamide]
The IC50 of the first is lower: 1000 to 20000 nM for the first, > 20000 nM for the second.

`CC(C)[C@H](O)C(=O)N[C@H]1C[C@@H](C)C[C@H](c2ccc(C#N)c3nccnc23)C1` [Compound 128, (S)—N-((1S,3S,5S)-3-(8-cyanoquinoxalin-5-yl)-5-methylcyclohexyl)-2-hydroxy-3-methylbutanamide] and `C[C@H]1C[C@@H](N)C[C@@H](c2ccc(C(F)(F)F)c3ncccc23)C1` [Compound 135, (1R,3R,5S)-3-methyl-5-(8-(trifluoromethyl)quinolin-5-yl)cyclohexanamine] fall in the same range of IC50: 1000 to 20000 nM for the first, 1000 to 20000 nM for the second.

`C[C@@H]1C[C@H](N)C[C@H](c2ccc(C(F)(F)F)c3ncccc23)C1` [Compound 136, (1S,3S,5R)-3-methyl-5-(8-(trifluoromethyl)quinolin-5-yl)cyclohexanamine] was tested, and the IC50 was < 1000 nM.

Reference: patent publication US11512069B2, “TLR7/8 antagonists and uses thereof” (Merck Patent GmbH, priority 2016, dated 2022)
